Test results published in PMC8648660, “Multifunctional thiosemicarbazones targeting sigma receptors: in vitro and in vivo antitumor activities in pancreatic cancer models” (Cellular Oncology, 2021).

Columns and labels:
[1] = biological target: T1, sigma-1 receptors (Homo sapiens, UniProt Q99720); assay: Flow cytometry displacement of sigma-1 fluorescent ligand LM1 in human pancreatic cancer cells; assay type: binding
T1 construct: endogenous in cells; host or cells: PANC-1, MiaPaCa2 (whole cells)
Method: (10 µM) was co-incubated. At the end of the incubation periods, the cells were washed twice with PBS, detached with […] Cell Dissociation Solution (Sigma Chemical Co.) for 10 min at 37 °C, centrifuged at 13,000 g for 5 min and resuspended in 500 µl PBS. Fluorescence was recorded using a Bio-Guava® easyCyte™ 5 Flow Cytometry System (Millipore, Billerica, MA, USA), equipped with a 530 nm band pass filter. For each analysis, 50,000 events were collected and analyzed using InCyte software (Millipore).

[2] = test system: caspase 7; assay: Caspase 7 activity assay in pancreatic cancer cells; assay type: cell-based, human and murine; conditions: 50 µM, 2 h
Method: (§1) Caspase 3, caspase 7 and caspase 9 activation was measured using a Caspase 3/7 Fluorescence Assay kit (Cayman Chemical, Ann Arbor, MI, USA) and a Caspase 9 fluorometric assay kit (Enzo Life Science, Roma, Italy). The results are expressed as nmol of the hydrolyzed substrate of each caspase/mg cellular proteins, according to a previously set titration curve.

[3] = test system: caspase 9; assay: Caspase 9 activity assay in pancreatic cancer cells; assay type: cell-based, human and murine; conditions: 2 h
Method: as §1

[4] = test system: GRP78, ATF6, IRE1 and PERK; assay: qRT-PCR of ER stress markers in pancreatic cancer cells; assay type: cell-based, human and murine; conditions: 50 µM, 2 h
Method: Total RNA was extracted using a phenol/chloroform method, after which 1 µg RNA was reverse-transcribed using an iScript Reverse Transcription Supermix kit according to the manufacturer’s instructions (Bio-Rad Laboratories). 25 ng cDNA was amplified using 10 µl of an IQ™ SYBR Green Supermix (Bio-Rad Laboratories). Primers were designed using qPrimer Depot software (http://primerdepot.nci.nih.gov/). qRT-PCR was carried out using an iQ^TM5 cycler (Bio-Rad Laboratories). The cycling conditions used were: 30 s at 95 °C, followed by 40 cycles of denaturation (15 s at 95 °C) and annealing/extension (30 s at 60 °C). The same cDNA preparations were used to quantify the expression of genes of interest and that of the housekeeping gene S14, which was used to normalize the gene expression levels. Relative quantitation of each sample was performed using Gene Expression Quantitation software (Bio-Rad Laboratories). The results were expressed in arbitrary units. For each gene, the expression level in untreated cells was arbitrarily set at “1”.

[5] = test system: GRP78, ATF6, IRE1 and PERK; assay: Western blotting of ER stress markers in pancreatic cancer cells; assay type: cell-based, human and murine; conditions: 50 µM, 2 h
Method: Cells were rinsed with ice-cold lysis buffer (50 mM, Tris, 10 mM EDTA, 1 % v/v Triton-X100), supplemented with protease inhibitor cocktail set III (80 µM aprotinin, 5 mM bestatin, 1.5 mM leupeptin, 1 mM pepstatin; Calbiochem, San Diego, CA, USA), 2 mM phenylmethylsulfonyl fluoride and 1 mM Na3VO4, then sonicated and centrifuged at 13,000 g for 10 min at 4 °C. 20 µg protein extracts were subjected to SDS-PAGE and probed with antibodies directed against ATG5, ATG7, ATG12, beclin, p62, LC3, GRP78, ATF6, IRE-1α and PERK (all from Abcam, Cambridge, UK), followed by incubation with a peroxidase-conjugated secondary antibody (Bio-Rad Laboratories). Next, the membranes were washed with Tris-buffered saline-Tween 0.1 % v/v solution, and proteins were detected by enhanced chemiluminescence (Bio-Rad Laboratories). To check for equal loading, the samples were probed with an anti-β-tubulin antibody (Santa Cruz Biotechnology Inc., Santa Cruz, CA, USA).

[6] = test system: mitochondrial ROS; assay: Mitochondrial ROS measurement (MitoSOX); assay type: cell-based, human and murine; conditions: 50 µM, 2 h
Method: Intra-mitochondrial ROS was measured using fluorescent probe MitoSOX as per manufacturer’s instructions (Invitrogen). To measure total ROS, cells were incubated with the ROS-sensitive probe 5-(and-6)-chlorometyl-20,70-dichlorodihydro-fluorescein diacetate-acetoxymethyl ester ([…]; DCFDA-AM) as described by Riganti et al.. The results are expressed as nmol/mg mitochondrial or cellular protein, respectively.

[7] = test system: MiaPaCa2 xenografts; assay: In vivo xenograft assay, MiaPaCa2; design: species or system mice; conditions: FA4 750 and 1500 nmol i.p. daily, 15 days
Method: 2 × 10^5 PANC-1 or Mia-PaCa2 cells were inoculated subcutaneously in the right flank of 6-week old C57BL/6 female nude mice (Charles River Laboratories Italia, Calco), housed (5 per cage) under a 12 h light/dark cycle, with food and drinking water provided ad libitum. Tumor growth was measured daily by caliper, according to the equation (LxW^2)/2, where L = tumor length and W = tumor width. When tumors reached a volume of 100 mm^3, the mice (n = 8/group) were randomized in the following groups and treated daily for 15 days or 30 days intraperitoneally as reported: (1) Vehicle group (100 µl saline solution), (2) FA4^low group (750 nmol FA4 in 100 µl saline solution), (3) FA4^high group (1500 nmol FA4 in 100 µl saline solution) and (4) Gemcitabine group (20 mg/kg gemcitabine, twice a week). Tumor volumes and animal weights were monitored daily. Animals were euthanized at day 18 or 36 after randomization with zolazepam (0.2 ml/kg) and xylazine (16 mg/kg). Next, tumors were excised and paraffin-embedded. […] Quantification of the immunohistochemical analyses was performed using ImageJ software (https://imagej.nih.gov/). The staining intensities were expressed as arbitrary units and considered 1 in the vehicle group.

[8] = Systemic toxicity and hematochemical parameters of treated PANC-1 tumor-bearing mice; conditions: PANC-1 tumor-bearing mice, 30 days treatment
Method: 2 × 10^5 PANC-1 or Mia-PaCa2 cells were inoculated subcutaneously in the right flank of 6-week old C57BL/6 female nude mice (Charles River Laboratories Italia, Calco), housed (5 per cage) under a 12 h light/dark cycle, with food and drinking water provided ad libitum. Tumor growth was measured daily by caliper, according to the equation (LxW^2)/2, where L = tumor length and W = tumor width. […] Tumor volumes and animal weights were monitored daily. Animals were euthanized at day 18 or 36 after randomization with zolazepam (0.2 ml/kg) and xylazine (16 mg/kg). […] Red blood cell (RBC) count, hemoglobin (Hb), white blood cell (WBC) count, platelet (PLT) count, lactate dehydrogenase (LDH), aspartate aminotransferase (AST), alanine aminotransferase (ALT), alkaline phosphatase (AP), creatinine and creatine phosphokinase (CPK) were measured in blood samples collected immediately after euthanasia, using commercially available kits from Beckman Coulter Inc (Beckman Coulter, Miami, FL, USA).
Blood was collected immediately after euthanasia and analyzed for red blood cells (RBC) count, hemoglobin (Hb), white blood cells (WBC) count, platelets (PLT) count, lactate dehydrogenase (LDH), aspartate aminotransferase (AST), alanine aminotransferase (ALT), alkaline phosphatase (AP), creatinine, creatine phosphokinase (CPK). Data are presented as means ± SD.

T1 sequence (Q99720 whole entry): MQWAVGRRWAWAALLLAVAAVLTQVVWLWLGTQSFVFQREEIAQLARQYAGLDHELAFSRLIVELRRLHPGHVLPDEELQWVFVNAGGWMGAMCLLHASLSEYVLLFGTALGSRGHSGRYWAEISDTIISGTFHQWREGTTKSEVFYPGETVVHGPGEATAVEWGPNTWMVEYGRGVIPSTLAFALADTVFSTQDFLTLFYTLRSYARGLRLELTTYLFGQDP

## CN(C)C(=S)N/N=C1\C(=O)N(CCCCN2CCC3(CC2)OCc2ccccc23)c2ccccc21 [FA4, (Z)-2-(1-(4-(3 H-spiro[isobenzofuran-1,4’-piperidine]-1’-yl)butyl)-2-oxoindolin-3-ylidene)-N,N-dimethylhydrazinecarbothioamide]
[1]; Flow Cytometry, IC50 ± SEM, Sigma-1, MiaPaCa2, MiaPaCa2 cells, displacement of LM1
  IC50: 53.2 ± 5.6 nM
[1]; Flow Cytometry, IC50 ± SEM, Sigma-1, PANC-1, PANC-1 cells, displacement of LM1
  IC50: 51.3 ± 4.3 nM
[1]; IC50 at sigma-1 receptor by flow cytometry (discussion), PANC-1 and MiaPaCa2 cells
  IC50: ~50 nM
[1]; flow cytometry IC50 values
  lower affinity for the sigma-1 receptor compared to the sigma-2 receptor: 5 fold
[2]
  caspase 7 activation: activated by FA4 in all cell lines except MiaPaCa2
[3]; 50 µM FA4 plus 0.4 µM mitoquinol
  activation of caspase 9 and caspase 3 with mitoquinol: did not find any activation of caspase 9 and caspase 3
[3]; 50 µM
  caspase 9 activation: observed in all the cells in which FA4 increased mitochondrial ROS and depolarization
[4]
  mRNA expression of ER stress markers GRP78, ATF6, IRE1, PERK: increased upon treatment with FA4 in all the cells tested, except in MiaPaCa2 cells
[5]
  protein expression of ER stress sensors and executers (Western blot): in all cell lines except MiaPaCa2, this thiosemicarbazone was able to increase the expression of ER stress sensors and executers
[6]
  mitochondrial ROS: increased mitochondrial ROS in all the cell lines tested, except MiaPaCa2
[7]
  tumor growth: ineffective at both dosages
[8]
  treatment-related deaths, weight loss, abnormalities in behavior: No treatment-related deaths, weight loss or abnormalities in mouse behavior were observed
